{"source": "patent US20030134859A1", "about": "(SANKYO COMPANY, LIMITED, priority 2000, published 2003)", "system": "Mouse preadipocyte strain 3T3-L1", "experiment": "Inhibition of differentiation as an indication of acetic acid uptake", "format": "cell-based", "conditions": "control (0.01% dimethylsulfoxide) = 100%; for activity at 0.1 µM: Mus musculus, read-out: Rate of Uptake (%) of [2-14C] acetic acid", "outline": "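Confluent 3T3-L1 cells induced to differentiate for 4 days (insulin, IBMX, dexamethasone, 5% FBS) with test compound at 0.1 μM final or 0.01% DMSO, then 2 days in insulin maintenance medium, at 37 °C, 10% CO2. [2-14C]acetic acid uptake over 1 hr counted by scintillation; expressed as % of DMSO control.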", "note": "Structures can show the parent of a compound that is named as a salt. Where two headings read alike, the source gives them in different places."}
{"smiles": "N#Cc1cccc(NC(=O)c2cc([N+](=O)[O-])ccc2Cl)c1", "note": "[Example 21, N-(3-Cyanophenyl)-(2-chloro-5-nitrophenyl)carboxamide]", "values": [{"measurement": "activity at 0.1 µM", "setting": "3T3-L1, 0.1 μM test substance", "value": 70.3, "unit": "%"}]}
{"smiles": "O=C(Nc1ccc([N+](=O)[O-])cc1)c1cc([N+](=O)[O-])ccc1Cl", "note": "[Example 23, N-(4-Nitrophenyl)-(2-chloro-5-nitrophenyl)carboxamide]", "values": [{"measurement": "activity at 0.1 µM", "setting": "0.1 μM test substance", "value": 59.5, "unit": "%"}]}
{"smiles": "O=C(Nc1ccc([N+](=O)[O-])cn1)c1cc([N+](=O)[O-])ccc1Cl", "note": "[Example 24, N-(5-Nitropyridin-2-yl)-(2-chloro-5-nitrophenyl)carboxamide]", "values": [{"measurement": "activity at 0.1 µM", "setting": "0.1 μM test substance", "value": 66.1, "unit": "%"}]}
{"smiles": "O=C(Nc1cccc([N+](=O)[O-])c1)c1cc([N+](=O)[O-])ccc1Cl", "note": "[Example 25, N-(3-Nitrophenyl)-(2-chloro-5-nitrophenyl)carboxamide]", "values": [{"measurement": "activity at 0.1 µM", "setting": "0.1 μM test substance", "value": 66.3, "unit": "%"}]}
{"smiles": "O=C(Nc1cccc(C(=O)N2CCCC2)c1)c1cc([N+](=O)[O-])ccc1Cl", "note": "[Example 31]", "values": [{"measurement": "Rate of Uptake (%) of [2-14C] acetic acid", "setting": "0.1 μM test substance", "value": 85.9, "unit": "%"}]}
{"smiles": "O=C(Nc1nc(-c2ccc3ccccc3c2)cs1)c1cc([N+](=O)[O-])ccc1Cl", "note": "[Example 42, N-[4-(2-Naphthyl)thiazol-2-yl)-(2-chloro-5-nitrophenyl)carboxamide]", "values": [{"measurement": "activity at 0.1 µM", "setting": "3T3-L1, 0.1 μM test substance", "value": 60, "unit": "%"}]}
{"smiles": "O=C(Nc1ccncc1)c1cc([N+](=O)[O-])ccc1Cl", "note": "[Example 49, N-(4-Pyridyl)-(2-chloro-5-nitrophenyl)carboxamide]", "values": [{"measurement": "Rate of Uptake (%) of [2-14C] acetic acid", "setting": "0.1 μM test substance", "value": 69.6, "unit": "%"}]}
{"smiles": "O=C(Nc1cnc2ccccc2c1)c1cc([N+](=O)[O-])ccc1Cl", "note": "[Example 55, N-(3-Quinolinyl)-(2-chloro-5-nitrophenyl)carboxamide]", "values": [{"measurement": "activity at 0.1 µM", "setting": "3T3-L1, 0.1 μM test substance", "value": 55.4, "unit": "%"}]}
{"smiles": "O=C(Nc1ccc(Cl)nc1)c1cc([N+](=O)[O-])ccc1Cl", "note": "[Example 62, N-(6-Chloropyridin-3-yl)-(2-chloro-5-nitrophenyl)carboxamide]", "values": [{"measurement": "activity at 0.1 µM", "setting": "3T3-L1, 0.1 μM test substance", "value": 82.9, "unit": "%"}]}
{"smiles": "O=C(Nc1ccc(NC(=O)c2cc([N+](=O)[O-])ccc2Cl)nc1)c1cc([N+](=O)[O-])ccc1Cl", "note": "[Example 64, 2,5-bis(2-Chloro-5-nitrobenzoylamino)pyridine]", "values": [{"measurement": "activity at 0.1 µM", "setting": "0.1 μM test substance", "value": 96.2, "unit": "%"}]}
{"smiles": "O=C(Nc1nc2cc(Cl)ccc2o1)c1cc([N+](=O)[O-])ccc1Cl", "note": "[Example 75, N-(5-Chlorobenzoxazol-2-yl)-(2-chloro-5-nitrophenyl)carboxamide]", "values": [{"measurement": "activity at 0.1 µM", "setting": "3T3-L1, 0.1 μM test substance", "value": 80.1, "unit": "%"}]}
{"smiles": "O=C(Nc1ncc(Br)cn1)c1cc([N+](=O)[O-])ccc1Cl", "note": "[Example 77, N-(5-Bromopyrimidin-2-yl)-(2-chloro-5-nitrophenyl)carboxamide]", "values": [{"measurement": "activity at 0.1 µM", "setting": "3T3-L1, 0.1 μM test substance", "value": 62.7, "unit": "%"}]}
{"smiles": "Nc1ccc(-c2ccc(NC(=O)c3cc([N+](=O)[O-])ccc3Cl)cc2)cc1", "note": "[Example 88, N-[4-(4-Aminophenyl)phenyl]-(2-chloro-5-nitrophenyl)carboxamide mono-hydrochloride]", "values": [{"measurement": "activity at 0.1 µM", "setting": "3T3-L1, 0.1 μM test substance", "value": 56.4, "unit": "%"}]}
{"smiles": "O=C(Nc1ccc(Cl)nn1)c1cc([N+](=O)[O-])ccc1Cl", "note": "[Example 89]", "values": [{"measurement": "Rate of Uptake (%) of [2-14C] acetic acid", "setting": "0.1 μM test substance", "value": 58.1, "unit": "%"}]}
{"smiles": "Cc1c(C)c2c(c(C)c1O)C(=O)CC(C)(COc1ccc(NC(=O)c3cc([N+](=O)[O-])ccc3Cl)cc1)O2", "note": "(stereo not drawn) [Example 92, N-[4-(6-Hydroxy-2,5,7,8-tetramethyl-4-oxochroman-2-ylmethoxy)phenyl]-(2-chloro-5-nitrophenyl)carboxamide]", "values": [{"measurement": "activity at 0.1 µM", "setting": "3T3-L1, 0.1 μM test substance", "value": 63, "unit": "%"}]}
{"smiles": "CS(=O)(=O)Nc1ccc(-c2ccc(NC(=O)c3cc([N+](=O)[O-])ccc3Cl)cc2)cc1", "note": "[Example 93, N-[4-[4-(Methanesulfonylamino)phenyl]phenyl]-(2-chloro-5-nitrophenyl)carboxamide]", "values": [{"measurement": "activity at 0.1 µM", "setting": "3T3-L1, 0.1 μM test substance", "value": 90.3, "unit": "%"}]}
{"smiles": "Cc1ccc(S(=O)(=O)Nc2ccc(-c3ccc(NC(=O)c4cc([N+](=O)[O-])ccc4Cl)cc3)cc2)cc1", "note": "[Example 94, N-[4-[4-(4-Toluenesulfonylamino)phenyl]phenyl]-(2-chloro-5-nitrophenyl)carboxamide]", "values": [{"measurement": "activity at 0.1 µM", "setting": "3T3-L1, 0.1 μM test substance", "value": 80.4, "unit": "%"}]}
{"smiles": "Cc1nnc(NS(=O)(=O)c2ccc(NC(=O)c3cc([N+](=O)[O-])ccc3Cl)cc2)s1", "note": "[Example 101, N-[4-[(5-Methyl-[1,3,4]thiadiazol-2-yl)aminosulfonyl]phenyl]-(2-chloro-5-nitrophenyl)carboxamide]", "values": [{"measurement": "activity at 0.1 µM", "setting": "3T3-L1, 0.1 μM test substance", "value": 78.3, "unit": "%"}]}
